Source: patent US20230110128A1, “USE OF ANTIBODY DRUG CONJUGATES COMPRISING TUBULIN DISRUPTING AGENTS TO TREAT SOLID TUMOR” (Seagen Inc., priority 2018, published 2023)
Non-standard residues stand in square brackets, D forms with d. Residues, ends and D or L forms follow the SMILES beside them. *: point of attachment. Dolaproine = CO[C@@H]([C@@H]1CCCN1)[C@@H](C)C(=O)O; Dil = CC[C@H](C)[C@H](NC)[C@@H](CC(=O)O)OC; X1 = C[C@@H](N*)[C@@H](O)c1ccccc1; NMeV = CN[C@H](C(=O)O)C(C)C

What was measured:
Type in all cases: cell-based
[1] = tested on: U-266 cells; assay: Cell surface ICD markers (HSP70, calreticulin) on AnnexinV negative U-266 cells; conditions: 48 hours, MMAE 492 nM, SGN-CD48A 10 ng/ml
Method: U-266 cells were treated for 48 hours with free MMAE (492 nM), an MMAE-containing ADC (SGN-CD48A, 10 ng/ml), and a non-binding MMAE-ADC (10 ng/ml) for 48 hours. Cells were harvested, washed in flow buffer, and subsequently stained for both AnnexinV, a marker for apoptosis, and HSP70. Cells were also stained with both AnnexinV and calreticulin. In both conditions, cells that were AnnexinV negative were selected and the percent population that was positive for HSP70 or calreticulin were determined.

[2] = tested on: A2058, SK-MEL-5, SK-MEL-28, Calu-1, HT-1080, SK-MES-1 and BXPC3 cells; assay: ATP secretion in a panel of solid tumor cell lines; conditions: 7 cell lines, supernatant after 17 hours
Method: (§1) Skin tumor lines A2058, SK-MEL-5 and SK-MEL-28, Calu-1 (lung), HT-1080 (fibrosarcoma), SK-MES-1 (lung), and BXPC3 (pancreas) cells were treated with MMAE, vincristine, and Paclitaxel. Supernatant was collected after 17 hours of treatment, and analyzed for ATP secretion.

[3] = tested on: BxPC-3 cells; assay: ATP secretion from BxPC-3 cells; conditions: 17 hours
[4] = tested on: Hep3b, Huh7, and JHH7 cells co-cultured with macrophages; assay: Macrophage costimulation/antigen presentation after co-culture with treated liver tumor cells; conditions: macrophages harvested 4 days after co-culture; normalized to Paclitaxel-treated tumor cells
Method: (§2) Liver tumor lines Hep3b, Huh7, and JHH7 cells were treated with MMAE, Tubulysin M, vincristine, and Paclitaxel for 24 hours and analyzed for ATP secretion. […] Cells were washed and harvested, and subsequently co-cultured with enriched macrophages prepared as above. Macrophages were harvested 4 days after co-culture and assayed for immune activation by flow cytometry. Levels of costimulation (as measured by CD86 expression, JHH7) and antigen-presentation (as measured by frequency of MHCII-expressing cells, Hep3b, Huh7, and JHH7) were quantified and normalized to macrophages that were co-cultured with […]. […] Supernatant from the co-culture of macrophages and dying liver tumor cells was harvested 24 hours later and assayed for levels of cytokine and chemokine production by ELISA and normalized to macrophages that were co-cultured with untreated tumor cells.

[5] = tested on: Hep3b, Huh7, and JHH7 cells; assay: ATP secretion from liver tumor lines; conditions: Huh7, JHH7, 24 hours
Method: as §2

[6] = tested on: PC-3 cells; assay: HMGB1 release from PC-3 cells; conditions: FIG. 3E
[7] = tested on: MDA-MB-468 cells; assay: ATP secretion from MDA-MB-468 cells; conditions: supernatant after 48 hours
Method: MDA-MB-468 cells were treated with MMAE or an MMAE-containing ADC (ASG-22ME). Supernatant was collected after 48 hours of treatment, and analyzed for ATP secretion.

[8] = tested on: BxPC3 and HPAFII tumor cells co-cultured with macrophages; assay: Cytokine and chemokine production in macrophage co-culture with treated BxPC3 and HPAFII cells; conditions: BxPC3 and HPAFII co-culture supernatant 24 hours, ELISA, normalized to untreated
Method: Supernatant from the co-culture of macrophages and dying tumor cells was harvested 24 hours later and assayed for levels of cytokine and chemokine production by ELISA and normalized to macrophages that were co-cultured with untreated tumor cells.

[9] = tested on: A2058, SK-MEL-5, and SK-MEL-28 (skin) cells co-cultured with macrophages; assay: Macrophage antigen presentation after co-culture with treated skin tumor cells; conditions: tumor cells treated 24 hours; macrophages harvested 4 days after co-culture; normalized to untreated
Method: Macrophages were enriched from PBMCs from 2 healthy donors by adhering PBMCs to cell culture-grade plastic. Non-adherent cells were removed 24 hours later, leaving a population of cells enriched for macrophages.
A2058, SK-MEL-5, and SK-MEL-28 (skin) cells were treated with MMAE, vincristine, and Paclitaxel for 24 hours. Cells were washed and harvested, and subsequently co-cultured with the enriched macrophages prepared above. Macrophages were harvested 4 days after co-culture and assayed for immune activation by flow cytometry. The level of antigen-presentation (as measured by frequency of MHCII-expressing cells) was quantified and normalized to macrophages that were co-cultured with untreated tumor cells.

[10] = tested on: U-266 multiple myeloma cells; assay: Western blot analysis of ER stress in U-266 cells; conditions: MMAE 492 nM, SGN-CD48A 10 ng/ml, 24 and 48 hours
Method: U-266 multiple myeloma cells were treated with free MMAE (492 nM), an MMAE-containing ADC (SGN-CD48A, 10 ng/ml), and a non-binding MMAE-ADO (10 ng/ml) for 24 and 48 hours. Cells were harvested at each time point and whole cell lysates were prepared. Lysates for each sample were run on an SDS-Page and transferred onto a nitrocellulose membrane. Western blot analysis was performed using phospho-JNK Thr183/Tyr185 (pJNK), PARR, ATF4, […], phospho-IRE-1 Ser274 (pIRE-1). β-actin serves as a loading control. […] Importantly, the induction of ER stress by MMAE in U-266 cells was sufficient to elicit markers of ICD.

[11] = tested on: T-24 cells co-cultured with macrophages; assay: Macrophage antigen presentation after co-culture with treated T-24 cells; conditions: T-24 treated 24 hours; macrophages harvested 4 days after co-culture
Method: T-24 (bladder) cells were treated with MMAE or an MMAE-containing ADC (ASG-22ME) for 48 hours and analyzed for ATP secretion. […] T-24 cells were also treated with MMAE, an MMAE-containing ADC (ASG22ME, Enfortumab vedotin), vincristine, and Paclitaxel for 24 hours. Cells were washed and harvested, and subsequently co-cultured with the enriched macrophages as above. Macrophages were harvested 4 days after co-culture and assayed for immune activation by flow cytometry. Level of antigen-presentation (as measured by frequency of MHCII-expressing macrophages) was quantified and normalized to macrophages that were co-cultured with untreated tumor cells. […] Supernatant from the co-culture of macrophages and dying T-24 tumor cells was harvested after 24 hours and assayed for levels of cytokine and chemokine production by ELISA and normalized to macrophages that were co-cultured with untreated tumor cells.

[12] = tested on: A2058, SK-MEL-5, SK-MEL-28 (skin) cell lines; assay: ATP secretion in skin cell lines; conditions: A2058, SK-MEL-5, SK-MEL-28, after 17 hours
Method: as §1

[13] = tested on: HeLa cervical cancer cells; assay: Western blot analysis of ER stress in HeLa cells; conditions: 1000 nM or 100 nM, 16 hours
Method: HeLa cervical cancer cells were treated with 1000 nM or 100 nM MMAE, Vincristine, or Paclitaxel for 16 hours and harvested for western blot analysis.

With CC[C@H](C)[C@@H]([C@@H](CC(=O)N1CCC[C@H]1[C@H](OC)[C@@H](C)C(=O)N[C@H](C)[C@@H](O)c1ccccc1)OC)N(C)C(=O)[C@@H](NC(=O)[C@@H](NC)C(C)C)C(C)C [MMAE, monomethyl auristatin E] (H-[NMeV]V[Dil][Dolaproine]-X1) the “Percentage of ICD markers (HSP70, calreticulin) on the cell surface of AnnexinV negative cells” value [1] was “increase in the percentage of ICD markers”, the “ATP secretion (cell lines responding)” value [2] was “ATP secretion in most of the cell lines assayed (6/7)” and the “ATP secretion response compared with Paclitaxel” value [2] was “more robust response than Paclitaxel in all cell lines assayed”. The ATP secretion [3] was “equivalent levels of ATP secretion”, the “Immune-activation (CD86 expression, JHH7; MHCII-expressing cells, Hep3b, Huh7, JHH7)” value [4] was “increase in immune-activation in 3/3 tumor cell lines that was more robust than Paclitaxel” and the “ATP secretion (cell lines responding)” value [5] was “potent ATP secretion from 3 of 3 cell lines evaluated”. For the same molecule, the “Release of HMGB1” value [6] was “release of ATP and HMGB1”, the ATP secretion [7] was “robust ATP secretion that was comparable to thapsigargin” and the “Cytokine and chemokine production” value [8] was “increase of the indicated cytokines and chemokines that was more robust than treatment with Paclitaxel”. The “Antigen-presentation (frequency of MHCII-expressing cells)” value [9] was “increase in antigen-presentation in 2/3 tumor cell lines that was more robust than Paclitaxel”, the “ER stress response (ATF4 expression, phosphorylation of JNK)” value [10] was “further increased the ER stress response” and the “Macrophage antigen presentation (frequency of MHCII-expressing macrophages)” value [11] was “increase in macrophage antigen presentation that was more robust than treatment with Paclitaxel”. For the same molecule, the “ATP secretion (skin cell lines responding)” value [12] was “potent ATP secretion from all 3”, the “ER stress responses (phosphorylation of IRE1)” value [13] was “activated ER stress responses” and the “Severe ER stress response (phosphorylation of JNK)” value [13] was “more severe ER stress response that was sustained with decreasing doses”.
